Measured values reported in patent US20240262844A1, “PYRIDINIUM SALTS AND METHODS OF USE” (UNIVERSITY OF WYOMING, priority 2023, published 2024).
Values joined by “and” are separate entries in the source; they are usually repeats but may differ in a detail not shown here. Equal entries are not always repeated. “Also recorded” adds a separate entry of the source. Structures can show the parent of a compound that is named as a salt.

Columns and labels:
HEK293T lysates = test: Chemoproteomic profiling of HEK293T lysates (protein-level enrichment); format: biochemical, Human
Description: In lysate tryptophan probe treatment for protein-level characterization: HEK293T cell pellets were suspended in native lysis buffer (50 mM HEPES pH 7.5, 150 mM sodium chloride (NaCl), 1.5 mM MgCl2, 1 mM DTT, 0.8% NP-40, 5% glycerol, and 1x protease inhibitors (Thermo)) at 2x the pellet volume. The samples were sonicated on ice for 30 seconds at 20% amplitude with a 2 second pulse ON and 3 second pulse OFF. Cell debris was removed by centrifugation at 20,000×g for 20 minutes at 4° C. Protein concentration was determined by bicinchoninic acid (BCA) (Pierce) and diluted down to 5 mg/mL with ChemProt buffer (50 mM HEPES pH 7.5, 150 mM NaCl, 1.5 mM MgCl2, 1 mM DTT, 0.4% NP-40, and 1x protease inhibitors (Thermo). 5 mg cell lysates were treated with 100x stocks of the tryptophan probes (pyridinium salts 1a, 1b, and 2b) to generate final concentrations (0, 1, 10, and 100 μM) in 1% DMSO. Lysates were incubated for 1 hour at 4° C. followed by photo-activation at respective wavelengths for 20 minutes at 4° C. Excess probe was removed using Sephadex G-25 PD-10 desalting columns (GE Healthcare) pre-equilibrated with 50 mM HEPES pH 7.5, 150 mM NaCl, 1.5 mM MgCl2, and 0.4% NP-40. The samples were then treated with 100 μL Neutravidin resin as a 50% slurry (Peirce). The samples were incubated overnight on a rotating apparatus at R.T. The following day, the beads were transferred to a MobiCol column (Boca Scientific), washed 3× with phosphate buffered saline (PBS) containing 0.2% SDS, washed 3x with PBS, and the enriched proteins were eluted with 2×NuPAGE lithium dodecyl sulfate (LDS) containing 10 mM DTT (Pierce) and heated for 30 minutes at 55° C. The eluent was collected and subsequently treated with 20 mM iodoacetamide (Pierce) for 30 minutes at R.T. protected from light. Samples were passed through detergent removal columns (Pierce) that were pre-equilibrated with 50 mM HEPES pH 8.0. The samples were treated with 2.5 μg Trypsin/LysC (Promega) at 37° C. for 16 hours. The following day, the sample was collected and prepped for isobaric labeling with TMT reagents (Thermo) as specified by the manufacturer.
Quantitative proteomics by two-dimensional nano liquid chromatography-tandem mass spectrometry (nLC-MS/MS): For protein-level characterization, the TMT-labeled sample were reconstituted in 0.1% formic acid (FA)/2% acetonitrile for offline high-pH reversed phase separation (RP10) using a Dionex UltiMate 3000 high-performance liquid chromatography (HPLC) system with fraction collection using Chromeleon v.6.8 (Thermo) software. Separation was achieved on a Waters Xbridge C18 3.5 μm 2.1×150 mm HPLC column (Waters) using a flow rate of 250 μL min-1 and the following ternary gradient and conditions: mobile phase A=water (HPLC grade), mobile phase B=acetonitrile (HPLC grade), and mobile phase C=200 mM ammonium acetate, pH 10. Mobile phase C is held at 10% throughout gradient. Starting conditions are 89% mobile phase A and 1% mobile phase B, ramping mobile phase B to 80% over 65 min. Fractions were collected in 96-well plates at 100 see per well. Fractions were reduced down to 12 fractions, dried, and reconstituted in 0.1% FA/2% acetonitrile for nLC-MS/MS. All data were acquired using a Orbitrap Fusion Lumos coupled to an Easy-nLC 1200 nanoflow liquid chromatograph operating at 300 nL min^−1. Peptides were cleaned up using a 1 cm online custom trap then eluted on a custom 20 cm laser pulled 75 μm column with C18 resin. Peptides were quantified using the synchronous precursor selection (SPS-MS3) or HCD method for TMT quantitation with 120k MS1 resolving power, 50 ms max injection time and 100% AGC. MS2 spectra were selected using the top ten most abundant features with a charge state between 2-6 using CID (collision induced dissociation) in the ion trap. The AGC was set to 100% with an isolation width of 0.7. MS3 was performed on the top 10 most abundant MS2 features between 400-1600 amu with a collision energy of 55%, AGC of 250%, and 50k resolution. […]

[1] = system: Octreotide acetate (1 kDa); test: Photochemical labeling of octreotide (LC/MS); format: biochemical; settings: 10 μM octreotide acetate, 100 μM pyridinium salt, 30 minutes
Description: General Procedure B: Photochemical Irradiation of Peptides and Proteins: To a 2 mL Pyrex LC/MS vial (Thermo model #03-391-39) were sequentially added solutions containing the desired biomolecule, glutathione (GSH), pyridinium salt, and ammonium acetate (NH4OAc). The resulting solution was diluted to a final volume of 500 μL and then sparged using nitrogen for a minimum of 30 minutes prior to irradiation. The actively sparging solution was then placed in an EvoluChem™ PhotoRedOx Box photoreactor that was equipped with a Kessil, PR160 427 nm LED Lamp and was then irradiated (100% lamp intensity) for the designated time at room temperature while maintaining active sparging. The resultant reaction mixture was then analyzed directly by LC/MS. Analysis of labeling outcomes using LC/MS was performed either by extracted ion chromatogram intensities (method A) or by integrating the area under the peaks associated with peptide content (method B). These values were totaled, and estimated percentages were assigned according to relative intensities of peaks or ion counts.
Labeling of Octreotide with Pyridinium Salt 2a (Octreotide-2a Conjugate). […] The resulting reaction mixture was directly analyzed by LC/MS using method A to have proceeded with 88% conversion with mono labeling. […]

Row | reactivity in the absence of photoirradiation (HEK293T lysates; enrichment profiles with and without photoirradiation) | Structure (SMILES) | proteome labeling profile, streptavidin-HRP Western blot of elution profiles (HEK293T lysates; 0-100 μM probe, with and without irradiation, before digestion) | number of proteins identified (from ≥2 unique peptides) with ≥2-fold enrichment versus DMSO (HEK293T lysates; about 100 μM probe, 60 min incubation, 20 min irradiation (302 nm 1a, 320 nm 1b, 440 nm 2b)) [proteins] | percentage of unique enriched proteins (HEK293T lysates; comparison of proteome coverage of probes 1a, 1b, 2b at 100 μM) | conversion ([1]; 20 mM NH4OAc pH 6.9, glutathione, 427 nm LED) | degree of labeling ([1]; 427 nm)
1 | thermal inertness | COc1ccc2cc(-c3cc(C)[n+](N(C)C(=O)OCCCCC[C@H]4SC[C@H]5NC(=O)N[C@H]54)c(C)c3)ccc2c1 (stereo in doubt) [Pyridinium salt 2b, 4-(6-methoxynaphthalen-2-yl)-2,6-dimethyl-1-(methyl(((5-((3aR,4R,6aS)-2-oxohexahydro-1H-thieno[3,4-d]imidazol-4-yl)pentyl)oxy)carbonyl)amino)pyridin-1-ium tetrafluoroborate] | concentration and optically dependent proteome labeling profiles; also recorded: dose-response profiles | 523 | about 69% |  | 
2 |  | COC(=O)N(C)[n+]1c(C)cc(-c2ccc3cc(OC)ccc3c2)cc1C [Pyridinium salt 2a, 1-((methoxycarbonyl)(methyl)amino)-4-(6-methoxynapthalen-2-yl)-2,6-dimethylpyridin-1-ium tetrafluoroborate] |  |  |  | 88% and 93% | mono labeling
